Seven compounds from patent EP2098226A1, “AKAP-PKA interaction inhibitors for use in the treatment of heart diseases” (Forschungsverbund Berlin e.V., priority 2008, dated 2009) can be followed below.

Molecules are shown by their SMILES. Like-named read-outs stand apart in the source and are kept apart here.

The target of test [1] is Bindung von RIIα an Peptide, die aus der PKA-Bindedomäne von AKAP18δ abgeleitet sind (AKAP18δ-L314E) (Homo sapiens, UniProt P13861). The experiment in a line: Biacore: inhibition of RIIα binding to immobilised peptide AKAP18δ-L314E. Particulars: for Hemmung der Interaktion (RIIα-Bindung an das Peptid AKAP18δ-L314E): preincubation of RIIα for 2 h; for inhibition at 100 µM: read-out: maximale Hemmung (RIIα-Bindung an das Peptid AKAP18δ-L314E).
From the text: Für das Experiment wurden Oberflächen mit dem Peptid beschichtet, mit RIIα-Untereinheiten inkubiert und die Reaktion in Biacore-Messungen verfolgt.

The test system of test [2] is Interaktionen von regulatorischen RII-Untereineinheiten der PKA (RIIα und β) mit AKAP150, dem AKAP Yotiao und AKAP18δ. Briefly: cAMP-agarose precipitation with Western blot detection of precipitated AKAPs. Particulars: neonatal cardiomyocytes; FMP-API-1 100 µM; precipitated AKAPs detected by Western blot. The test is classed as cell-based. As for the experimental part: Die Verbindungen 18882 (FMP-API-1), 1016, 1020 und 1021 (siehe Tabelle 1) hemmen die Interaktionen von regulatorischen RII-Untereineinheiten der PKA (RIIα und β) mit AKAP150, dem AKAP Yotiao und AKAP18δ. Es wurden cAMP-Agarose-Präzipitationen mit neonatalen Kardiomyozyten in Ab- oder Anwesenheit des AKAP-PKA-Interaktionshemmers FMP-API-1 (100 µM), einer Kontrollsubstanz (100 µM) und cAMP (50 mM) durchgeführt. cAMP-Agarose bindet regulatorische Untereinheiten der PKA und deren Bindungspartner, inklusive AKAP. Präzipitierte AKAP wurden mit spezifischen Antikörpern mittels Western Blot detektiert.
Background: In western blotting, separated proteins are transferred to a membrane and probed.

Test [3] deals with neonatalen Kardiomyozyten aus der Ratte. Briefly: cAMP level in neonatal cardiomyocytes, radioimmunoassay (RIA). The test is classed as cell-based. Particulars: substances 50 µM in the presence of Isoproterenol 100 nM. The protocol:
Die Substanzen 18882 (FMP-API-1), 1004, 1010, 1016, 1020, 1021 und 1023 steigern in Gegenwart des β-Adrenozeptoragonisten Isoproterenol den cAMP-Spiegel in neonatalen Kardiomyozyten aus der Ratte. Die Zellen wurden unbehandelt belassen, mit Isoproterenol allein (100 nM), mit Isoproterenol (100 nM) und den Substanzen (50 µM) oder mit Forskolin inkubiert. Der cAMP-Spiegel wurde durch Radioimmuno-Assay (RIA) bestimmt.

The subject of test [4] is PKA. Briefly: PKA activation in neonatal cardiomyocytes (Peptag phosphorylation). Type of test: cell-based, Ratte. Particulars: 300µM for 30 min, densitometry. The protocol:
Die zeigt, dass die Substanzen 1016,1020,1021 und 1027 PKA in neonatalen Kardiomyozyten aus der Ratte aktivieren. Die Zellen wurden mit DMSO (Kontrolle), die Substanzen in 300µM Konzentrationen, oder dem Adenylylzyklaseaktivator Forskolin für 30 min inkubiert. Die Aktivierung der PKA wurde anhand der Phosphorylierung des fluoreszierenden Substratpeptids Peptag verfolgt und quantifiziert. Die semiquantitative Analyse der Peptag-Peptidephosphorylierung wurde densitometrisch vorgenommen. Angegeben sind relative densitometrische Einheiten (RDU; Mittelwerte ± SD).
zeigt, dass die Substanzen 1016,1020,1021 und 1027 PKA in neonatalen Kardiomyozyten aus der Ratte aktivieren. Die Zellen wurden mit DMSO (Kontrolle), die Substanzen in 300µM Konzentrationen, oder dem Adenylylzyklaseaktivator Forskolin (FSK) für 30 min inkubiert. Die Aktivierung der PKA wurde anhand der Phosphorylierung des fluoreszierenden Substratpeptids Peptag verfolgt und quantifiziert. Die semiquantitative Analyse der Peptag-Peptidephosphorylierung wurde densitometrisch vorgenommen. Angegeben sind relative densitometrische Einheiten (RDU; Mittelwerte ± SD).

The next test has as its system Phopholamban (PLB). The experiment in a line: Phospholamban phosphorylation in neonatal cardiomyocytes (Western blot). Type of test: cell-based. Particulars: 300 µM for 5 min; p-PLB relative to Calsequestrin. The protocol:
Die Zellen wurden mit DMSO (control), dem β-Adrenozeptoragonisten Isoproterenol (ISO) oder dem AKAP-PKA-Interaktionshemmer FMP-API-1 bzw. dessen Derivaten (300 µM) für 5 min. inkubiert, anschließend lysiert und im Western Blot wurde phosphoryliertes Phospholamban (p-PLB) mittels eines spezifischen anti-Phospholambanantikörpers detektiert. Calsequestrin, ein Protein des sarkoplasmatischen Retikulums, dient als Ladungskontrolle. Für die Quantifizierung (densitometrische Auswertung) wurde die p-PLB-Menge auf die Menge von Calsequestrin bezogen. Angegeben sind relative densitometrische Einheiten (RDU; Mittelwerte ± SEM, drei unabhängige Experimente).

Test [5] has as its system AKAP18δ und regulatorischen RIIα- und RIIβ-Untereinheiten. The experiment in a line: Oligomerisation of AKAP18δ and RII subunits in neonatal cardiomyocytes (cAMP-agarose precipitation, Western blot). The test is classed as cell-based. Particulars: neonatal cardiomyocytes incubated with the substances. The text has this: Neonatale Kardiomyozyten wurden mit den Substanzen in den angegebenen Konzentrationen inkubiert. A. Anschließend wurde eine cAMP-Agarose-Präzipitation und ein Western Blot (WB) zur Detektion von AKAP18δ durchgeführt. Als Negativkontrolle wurde die cAMP-Agarose mit cAMP inkubiert, das die Bindung von R-Untereinheiten an die Agarose verhindert. B. Detektion von RIIβ in Lysaten von neonatalen Kardiomyozyten. C. Detektion von AKAP18δ, RIIα und RIIβ nach Inkubation mit den Substanzen.

A further test addresses RIIα (Homo sapiens, UniProt P13861). The experiment in a line: Biacore: direct binding of substances to covalently immobilised RIIα. Particulars: for Bindung an RIIα: surfaces covalently coated with RIIα, incubated with the substances; for Bindungen des Peptids Ht31 und der Substanz an RIIα: RIIα surface incubated with peptide Ht31 and additionally with the substance. The text has this: Biacore-Messungen zum Nachweis der Bindung der Substanz 1026 an RIIα. Es wurden Oberflächen durch kovalente Bindung mit RIIα beschichtet und mit der Substanz in den angegebenen Konzentrationen inkubiert.
Die Bindungen des Peptids Ht31 und der Substanz 1026 an RIIα sind additiv. Es wurden Oberflächen durch kovalente Bindung mit RIIα beschichtet und mit dem Peptid Ht31, das an die sog. Dimerisierungs- und docking-Domäne (DD-Domäne) von regulatorischen Untereinheiten der PKA bindet, inkubiert.
Es wurden Oberflächen durch kovalente Bindung mit RIIα beschichtet und mit den Substanzen inkubiert.
A general note: Surface plasmon resonance follows binding to a sensor surface in real time, without labels.

Test [6] has as its system kultivierten adulten Kardiomyozyten. The experiment in a line: Contractility of cultured adult cardiomyocytes (Fura-2, field stimulation). Particulars: 10µM; calcium fluxes and cell shortening parameters. Type of test: cell-based. The protocol:
Die Substanzen 18882 (FMP-API-1) und 1016 steigern die Kontraktilität an kultivierten adulten Kardiomyozyten (positiv inotroper Effekt). Die Zellen wurden isoliert, mit Fura-2 beladen und einer Feldstimulation ausgesetzt. Bestimmt wurden die Calciumfluxe und Zellverkürzungsparameter (cell shortening parameters) unter basalen Bedingungen und in Gegenwart von DMSO, Isoproterenol , FMP-API-1 (10µM) oder 1016 (10µM). Dargestellt sind Mittelwerte ± SEM.

For a further test, the system named is Rattenherzen. Briefly: Langendorff isolated heart: left ventricular pressure, contraction and relaxation rates. Also noted: species or system Ratte. Particulars: perfused rat hearts, 10 µM, n ≥ 8 hearts per condition. The protocol: Bestimmung der linksventrikulären Druckentwicklung, der maximalen Kontraktions- (CR) und Relaxationsraten (RR) von Rattenherzen (in %) in einer Langendorff-Herz-Apparatur.
zeigt den Einfluss von Isoproterenol, DMSO, den Substanzen 1016, 1020 und 1021 auf die relative Zellgröße der Kardiomyozyten bezogen auf die durchschnittliche Zellgröße von Kontrollzellen (%). Kardiomyozyten wurden für 48h entweder unbehandelt belassen oder mit 15 µM Isoproterenol als Kontrollen inkubiert. Da die Kardiomyozyten zusätzlich zu der Substanz mit höchstens 0,1% DMSO inkubiert wurden, wurden Kardiomyozyten nur mit 0,1% für 48h inkubiert. Des Weiteren wurde ein möglicher Effekt von DMSO auf die Isoproterenolinduzierte Hypertrophie untersucht und die Zellen demnach mit 0,1% DMSO für 20 min präinkubiert und anschließend mit 15 µM Isoproterenol für 48 h inkubiert. Außerdem wurden Kardiomyozyten mit den Substanzen 1016, 1020 und 1021 in den Konzentrationen 3, 10, 30, 50 oder 75 µM für 48 h ohne Isoproterenol inkubiert. Des Weiteren wurden Kardiomyozyten mit den Substanzen 1016, 1020 und 1021 in den Konzentrationen 3, 10, 30, 50 oder 75 µM präinkubiert. Dann wurde Isoproterenol (15 µM) zu den Endkonzentrationen von 3, 10, 30, 50 oder 75 µM zugegeben und die Kardiomyozyten damit für 48 h inkubiert. Nach der Inkubation mit den Substanzen wurde α-Aktinin immunfluoreszenzmikroskopisch dargestellt. […]

For test [7], the target named is PKA (Homo sapiens, UniProt P31323). The experiment in a line: PKA activation in vitro (Peptag substrate peptide phosphorylation). Type of test: biochemical. Particulars: 1 mM, catalytic subunits with or without RIIβ subunits. The protocol: Die Substanz 18882 (FMP-API-1) aktiviert PKA in vitro. Das Experiment wurde wie in Abb. 24 dargestellt durchgeführt. Hier wurde zusätzlich mit AKAP18δ inkubiert. Katalytische Untereinheiten der PKA wurden in An- oder Abwesenheit von regulatorischen RIIβ-Untereinheiten mit der Substanz 18882 (FMP-API-1; 1 mM) inkubiert. Die Aktivierung der PKA wurde anhand der Phosphorylierung des fluoreszierenden Substratpeptids Peptag verfolgt und quantifiziert. Die semiquantitative Analyse der Peptag-Peptidphosphorylierung wurde densitometrisch vorgenommen (Mittelwerte ± SEM). Die Gegenwart des AKAP hat einen geringen zusätzlich Einfluß auf den Effekt der Substanz 18882.

Test [8] deals with neonatalen Kardiomyozyten aus der Ratte. The experiment in a line: cAMP level in neonatal cardiomyocytes, ELISA-based assay. Type of test: cell-based. Particulars: substances 50 µM in the presence of Isoproterenol 100 nM. As for the experimental part:
Die Substanzen 1025, 1026, 1027 und 1028 steigern in Gegenwart des β-Adrenozeptoragonisten Isoproterenol den cAMP-Spiegel in neonatalen Kardiomyozyten aus der Ratte. Die Zellen wurden unbehandelt belassen, mit Isoproterenol allein (100 nM) oder mit Isoproterenol (100 nM) und den Substanzen (50 µM) inkubiert. Der cAMP-Spiegel wurde durch einen ELISA-basierten Assay bestimmt.
For orientation: Cyclic AMP is a second messenger, typically raised through Gs and lowered through Gi signalling.

Chain of RIIα (P13861 whole entry): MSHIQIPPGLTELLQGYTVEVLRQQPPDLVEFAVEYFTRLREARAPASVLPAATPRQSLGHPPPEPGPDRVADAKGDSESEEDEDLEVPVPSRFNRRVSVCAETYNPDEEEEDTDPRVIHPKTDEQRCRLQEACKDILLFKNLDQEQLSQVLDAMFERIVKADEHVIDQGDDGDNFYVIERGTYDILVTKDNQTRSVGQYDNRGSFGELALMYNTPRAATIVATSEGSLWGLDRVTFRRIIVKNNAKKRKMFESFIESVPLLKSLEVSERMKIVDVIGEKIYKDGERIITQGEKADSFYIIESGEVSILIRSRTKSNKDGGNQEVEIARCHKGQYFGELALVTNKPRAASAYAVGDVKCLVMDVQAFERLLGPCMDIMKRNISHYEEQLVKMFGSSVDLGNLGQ
Chain of Bindung von RIIα an Peptide, die aus der PKA-Bindedomäne von AKAP18δ abgeleitet sind (AKAP18δ-L314E) (P13861 whole entry, stated change not applied): as the sequence (P13861 whole entry) above
Chain of PKA (Homo sapiens, UniProt P31323) (P31323 whole entry): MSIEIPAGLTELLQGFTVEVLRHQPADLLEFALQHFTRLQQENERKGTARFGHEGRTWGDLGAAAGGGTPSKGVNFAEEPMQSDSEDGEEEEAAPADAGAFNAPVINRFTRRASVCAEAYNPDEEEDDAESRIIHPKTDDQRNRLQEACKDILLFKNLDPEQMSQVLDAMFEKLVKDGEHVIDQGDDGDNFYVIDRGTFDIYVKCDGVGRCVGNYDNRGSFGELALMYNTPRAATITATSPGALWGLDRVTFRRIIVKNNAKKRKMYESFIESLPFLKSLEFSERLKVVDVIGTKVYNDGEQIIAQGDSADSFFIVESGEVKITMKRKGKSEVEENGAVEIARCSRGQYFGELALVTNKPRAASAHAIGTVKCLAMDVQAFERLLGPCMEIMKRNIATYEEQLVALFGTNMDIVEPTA

With `CC(c1ccc(O)cc1)c1ccc(O)c(N)c1` (stereo not shown) [Verbindung 1021, 3-Amino-1,1-bis-(4-hydroxyphenyl)-ethan], in test [1], the “Hemmung der Interaktion (RIIα-Bindung an das Peptid AKAP18δ-L314E)” value is given as roughly 40% and the inhibition at 100 µM was roughly 50%. The “Hemmung der Interaktionen von regulatorischen RII-Untereineinheiten der PKA (RIIα und β) mit AKAP150, Yotiao und AKAP18δ” value in test [2] is recorded as “hemmen”. The cAMP-Spiegel result in test [3] is “steigern”. Also, the “Aktivierung der PKA in neonatalen Kardiomyozyten” value with PKA [4] is recorded as “aktivieren”. The “Phosphorylierung von Phopholamban (PLB)” value with Phopholamban (PLB) was “induzieren eine Zunahme”. Moreover, the “Oligomerisierung (Oligomers) von AKAP18δ und regulatorischen RIIα- und RIIβ-Untereinheiten” value in [5] is on record as “induzieren die Oligomerisierung”.

For `COc1ccc(Cc2ccc(OC)c(N)c2)cc1N` [Verbindung 1030], on RIIα, the “Bindung an RIIα” value is given as “konzentrationsabhängigen Bindung”.

Take `CC(c1ccc(O)c(N)c1)c1ccc(O)c(N)c1` [Verbindung 1020, 1,1-Bis-(3-Amino-4-hydroxyphenyl)-ethan]: in test [1], the “Hemmung der Interaktion (RIIα-Bindung an das Peptid AKAP18δ-L314E)” value is recorded as roughly 50% and the inhibition at 100 µM is roughly 50%. Besides, the “Hemmung der Interaktionen von regulatorischen RII-Untereineinheiten der PKA (RIIα und β) mit AKAP150, Yotiao und AKAP18δ” value in [2] is listed as “hemmen”. Further, the cAMP-Spiegel entry in test [3] was “steigern”. In addition, the “Aktivierung der PKA in neonatalen Kardiomyozyten” value with PKA [4] is recorded as “aktivieren”. Moreover, the “Phosphorylierung von Phopholamban (PLB)” value in the test on Phopholamban (PLB) is listed as “induzieren eine Zunahme”. For the same compound, the “Oligomerisierung (Oligomers) von AKAP18δ und regulatorischen RIIα- und RIIβ-Untereinheiten” value in test [5] is reported as “induzieren die Oligomerisierung”.

Take `Nc1cc(Cc2ccc(O)cc2)ccc1O` [Verbindung 1016, 3-Amino-4,4'-dihydroxydiphenylmethan]: the inhibition at 100 µM in test [1] (concentration 100 µM) is roughly 60%. The “Hemmung der Interaktion (RIIα-Bindung an das Peptid AKAP18δ-L314E)” value in test [1] is roughly 50%. In addition, the “Kontraktilität (positiv inotroper Effekt)” value in [6] is given as “steigern”. Also, in [2], the “Hemmung der Interaktionen von regulatorischen RII-Untereineinheiten der PKA (RIIα und β) mit AKAP150, Yotiao und AKAP18δ” value is on record as “hemmen”. Besides, the cAMP-Spiegel result in [3] is reported as “steigern”. In addition, the “Aktivierung der PKA in neonatalen Kardiomyozyten” value in the test on PKA [4] is “aktivieren”. Moreover, the “Phosphorylierung von Phopholamban (PLB)” value in the test with Phopholamban (PLB) is on record as “induzieren eine Zunahme”. Also, in test [5], the “Oligomerisierung (Oligomers) von AKAP18δ und regulatorischen RIIα- und RIIβ-Untereinheiten” value was “induzieren die Oligomerisierung”.

Regarding `Nc1cc(Cc2ccc(O)c(N)c2)ccc1O` [Verbindung 18882, 3,3'-Diamino-4,4'-dihydroxydiphenylmethan, reference compound], the “Zunahme der gemessenen Parameter (linksventrikuläre Druckentwicklung, maximale Kontraktions- (CR) und Relaxationsraten (RR))” value in the test on Rattenherzen was roughly 17%. Moreover, in [6], the “Kontraktilität (positiv inotroper Effekt)” value is “steigern”. Further, the “Hemmung der Interaktionen von regulatorischen RII-Untereineinheiten der PKA (RIIα und β) mit AKAP150, Yotiao und AKAP18δ” value in test [2] was “hemmen”. In addition, the cAMP-Spiegel entry in [3] is reported as “steigern”. The “Aktivierung der PKA in vitro” value on PKA [7] is listed as “aktiviert”. Further, in the test with Phopholamban (PLB), the “Phosphorylierung von Phopholamban (PLB)” value is reported as “induzieren eine Zunahme”. Also, the “Oligomerisierung (Oligomers) von AKAP18δ und regulatorischen RIIα- und RIIβ-Untereinheiten” value in test [5] is “induzieren die Oligomerisierung”.

As for `O=C(c1ccc(O)c(O)c1)c1ccc(O)c(O)c1` [Verbindung 1028, Bis-(3,4-dihydroxy-phenyl)-methanon], the cAMP-Spiegel entry in [8] is on record as “steigern”. Also, on RIIα, the “Bindungen des Peptids Ht31 und der Substanz an RIIα” value is reported as “additiv” and the “Bindung an RIIα” value is on record as “konzentrationsabhängigen Bindung”.

Turning to `Oc1ccc(Cc2ccccc2)cc1O` [Verbindung 1027, 4-Benzyl-pyrocatechol], the cAMP-Spiegel entry in [8] is on record as “steigern”. At RIIα, the “Bindungen des Peptids Ht31 und der Substanz an RIIα” value is given as “additiv” and the “Bindung an RIIα” value is “konzentrationsabhängigen Bindung”. Besides, the “Aktivierung der PKA in neonatalen Kardiomyozyten” value in the test on PKA [4] was “aktivieren”.
